Where two headings read alike, the source gives them in different places. No end group written: not given here.

Data set [1] addresses T1, α7nAChR (the α7 nicotinic acetylcholine receptor), allosteric site (Rattus norvegicus, UniProt Q05941).
T1 construct: [3H]; host or cells: wild-type PC12 cells
The data set can be described thus: [3H] Ivermectin binding assay on PC12 cell membranes.
Description: PC12 membranes where obtained to perform binding assays. PC12 cells were grown until confluence on 100 mm plates. Growth medium was removed and ice-cold 50 mM Tris-HCl buffer (pH 7.4) containing 4.5 μg/μ1 aprotinin and 0.1 mM phenylmethylsulphonylfluoride (PMSF) were added. Cells were mechanically detached and pelleted by centrifugation (1040×g) for 4 minutes at 4° C. Pellets were homogenized with a Polytron and centrifuged (13000×g) for 20 minutes at 4° C. The pellets were resuspended in fresh buffer and incubated at 37° C. for 10 minutes to remove endogenous neurotransmitters. The samples were subsequently re-centrifuged. The final pellet was resuspended in buffer and the protein concentration determined using the Bradford Reagent (Sigma-Aldrich, St. Louis, MO). The cell membrane preparation was stored at −80° C.
For the binding with PC12 membranes, each incubation was performed in polystyrene tube (VWR International Ltd; Leicestershire, UK) containing 0.25 ml of membranes diluted in Tris-HCl 50 mM buffer (containing 50 μg of PC12 membranes) with 5 nM [3H] […] Thereafter, samples were filtered through Brandel GB glass fibre filters (MD, USA); pre-soaked in 0.5% polyethylenemine by a Harvester (Brandel; MD, USA). Tubes were washed 3 times with ice cold 50 mM Tris-HCl buffer. Radioactivity in the tubes was counted by scintillation spectrometry using a 300 SL Liquid scintillation counter (Lablogic Systems Limited, UK). Specific binding was determined by subtracting the non-specific (cells treated with Ivermectin 30 μM) value to all the tubes.

A short description of data set [2]: Sulforhodamine B (SRB) cell viability assay. Particulars: 10 μM, 1 hour, PC12; read-out: cell viability, peptide alone. It counts as cell-based. As for the experimental part:
(§1) Wild-type PC12 cell were provided by Sigma-Aldrich (St. Louis, MO). The culture was routinely plated in 100 mm dishes (Corning) coated with collagen (2 μg/cm^2) and maintained in growth medium with Minimum Essential Medium Eagle (MEM) supplemented with heat-inactivated 10% horse serum (HS) and 5% foetal bovine serum (FBS), 10 mM HEPES, 2 mM L-Glutamine and 1:400 Penicillin/streptomycin solution. Cells were maintained at 37° C. in a humidified atmosphere 5% CO2 and the medium was replaced every 2 days. For splitting, cells were dislodged from the dish using a pipette with medium, with a portion of these replated onto new cultured dishes. Cells were used between passages 12 and 25.
(§2) The cell viability assay used was the sulforhodamine B (SRB) colorimetric assay for toxicity screening. The day before of the experiment cells were seeded onto collagen-coated 96-well plates in a concentration of 40,000 cells/well. Cell concentration was determined by the Fuchs-Rosenthal chamber. […] After treatment, medium was replaced and cells were fixed by adding 100 μl of 10% Trichloroacetic Acid (TCA) for 1 h at 4° C. Thereafter, cells were washed with H2O and stained with 100 μl of a 0.057% SRB solution in 1% Acetic acid (HAc) for 30 minutes at room temperature. After staining cells were washed with 1% HAc for removing the excess of SRB and then incubated with 200 μl of 10 mM Tris base (pH 10.5) and shake it for 5 minutes to solubilise the protein-bound dye. Measurement of the absorbance took place in a VMax Kinetic Microplate Reader (Molecular Devices) at 490 nm.

The target in data set [3] is allosteric site on the α7 nicotinic-receptor (Rattus norvegicus, UniProt Q05941). Put plainly: Binding affinity for the allosteric site of the α7 nicotinic-receptor, using tests for viability.
Chain of allosteric site on the α7 nicotinic-receptor (Q05941 23-502): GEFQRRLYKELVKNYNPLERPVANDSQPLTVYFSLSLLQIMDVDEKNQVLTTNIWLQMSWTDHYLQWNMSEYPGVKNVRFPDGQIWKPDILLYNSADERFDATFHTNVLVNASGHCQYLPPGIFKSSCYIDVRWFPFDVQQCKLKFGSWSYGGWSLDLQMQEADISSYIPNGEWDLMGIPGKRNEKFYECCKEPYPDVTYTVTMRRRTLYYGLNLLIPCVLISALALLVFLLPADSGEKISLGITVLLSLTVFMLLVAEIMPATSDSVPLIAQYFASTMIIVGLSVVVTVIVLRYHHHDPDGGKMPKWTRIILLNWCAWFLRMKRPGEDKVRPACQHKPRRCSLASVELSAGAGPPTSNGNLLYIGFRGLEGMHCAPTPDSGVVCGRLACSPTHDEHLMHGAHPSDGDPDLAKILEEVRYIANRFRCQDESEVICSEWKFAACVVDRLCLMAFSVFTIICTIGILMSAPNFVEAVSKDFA
In a further data set the test system is PC12 cells. Put plainly: Sulforhodamine B (SRB) cell viability assay. Type of data set: cell-based. The procedure: as §1, §2
For data set [4] the following is noted: cited from earlier work.

T1 sequence (Q05941 23-502): as above

As to AEFHRWSSYMVHWK [T14], the “% [3H] Ivermectin binding (Mean ± SEM)” value in data set [1] (1 nM competitor, Table 1) came out at 100 ± 9.91%; in data set [1] (10 nM competitor, Table 1), 90.92 ± 2.38%; in data set [1] (100 nM competitor, Table 1) it was 88.92 ± 3.82%; in data set [1] (1 μM competitor, Table 1), 85.17 ± 3.03%; in data set [1] (5 μM competitor, Table 1), 85.36 ± 3.96%. Besides, the viability at 10 µM in data set [2] came to 83 ± 5.38%. Also, the “binding affinity for the allosteric site on the α7 nicotinic-receptor” value in data set [3] was 0.005 µM.
Take `COc1ccc2c3c1O[C@H]1C[C@@H](O)C=C[C@@]31CCN(C)C2` [Galanthamine]: the “% [3H] Ivermectin binding (Mean ± SEM)” value in data set [1] (100 nM competitor, Table 2, N = 6) amounted to 100.00 ± 11.48%; in data set [1] (200 nM competitor, Table 2), 97.86 ± 1.40%; in data set [1] (500 nM competitor, Table 2), 90.96 ± 1.87%; in data set [1] (700 nM competitor, Table 2), 69.68 ± 9.87%; in data set [1] (1 μM competitor, Table 2), 67.17 ± 6.64%; in data set [1] (2 μM competitor, Table 2), 66.32 ± 4.29%. In addition, the “dose that blocks β-Amyloid (Table 3 feature)” value in the data set on PC12 cells ('high doses') is “doses (0.1 μM)”. For the same molecule, the “minimum effective concentration against β-Amyloid (10 μM) on cell viability” value in the data set with PC12 cells (PC12, FIG. 8) is listed as 100 nM. The “binding affinity for the allosteric site on the α7 nicotinic-receptor” value is “low affinity” in data set [3] and 10 µM in data set [3] (listed as galanthamine). For the same molecule, in data set [3] (✓ = Dream Drug feature 'Nanomolar affinity'), the “affinity (Table 3 feature)” value was “Micromolar affinity”. Also, the “bioavailability periphery (Table 3 feature)” value in data set [4] was “High bioavailability”.

(Values after patent US12139729B2, “Neurodegenerative disorders” (priority 2013, dated 2024).)
